Results published in patent US9186416B2, “Immunoconjugates, compositions for making them, and methods of making and use” (priority 2011, dated 2015).

Key:
H226 cell lysates = test: Dephosphorylation by H226 cell lysates; assay type: in vitro ADME, human; settings: similar experiment
786-O cell lysate = test: Dephosphorylation by 786-O cell lysate; assay type: in vitro ADME, human; settings: 100 μM compound, 786-O lysate 2 mg/mL protein, pH 5.5, 37° C.
Protocol: 786-O cells, as frozen pellets with an estimated quantity of 10^7 cells per vortexing tube, were resuspended and homogenized in 500 μL of lysis buffer (25 mM NaOAc, 1 mM EDTA, 0.25 M sucrose, 0.1% Triton X-100, pH 5.5). Homogenization involved vortex mixing for 30 sec, followed by a one min cooling on ice. For each tube, three vortex and cooling cycles were performed. Cell samples were then further mixed by shearing in a 19 gauge needle three times.
Following homogenization, the DNA of the cell lysate was hydrolyzed using BENZONASE™ DNAse. Samples were first brought up in 1 mM MgSO4. After mixing, 2 μL of BENZONASE™ DNAse (neat) were added to each vial of lysate (4 μL/mL, v/v, final concentration). Samples were then stored at RT for 15 min and then cooled on ice. For this step, successful DNAse activity was evidenced by appearance of flocculent precipitate. Samples were then spun at maximum speed in a microcentrifuge for 5 min to remove cellular debris. Supernatant was frozen at −70° C. for later use. Protein concentration of the lysate was determined using Pierce BCA Protein Determination methodology (Thermo Scientific).
A 2000 μM stock solution of the compound of formula (Ia) was prepared. Lysate was diluted to 2.1 mg/mL in lysate buffer. For reaction, 5 μL of the compound (Ia) stock was added to 95 μL of lysate. […]

In the case of `Nc1ccc(C(=O)Nc2ccc3[nH]c(C(=O)N4C[C@@H](CCl)c5c4cc(OP(=O)(O)O)c4ccccc54)cc3c2)cc1` [compound (Ia)], the “time to complete dephosphorylation” value (H226 cell lysates) was at most 3 h and the “time to complete dephosphorylation” value (786-O cell lysate) was at most 8 h.
